In patent US4640915A, “1-azabicyclo[3.2.0]hept-2-ene-2-carboxylic acid derivatives” (Fujisawa Pharmaceutical Co., Ltd., priority 1982, dated 1987):
Like-named read-outs stand apart in the source and are kept apart here.

Key:
Escherichia coli 36 = assay: Synergistic Protecting Effect on experimental mice infection; type: in vivo, ICR strain-mice (infected with Escherichia coli 36); conditions: combination 1:1 by weight, subcutaneous, one hour after i.p. challenge, survival over 4 days
Experimental: (i) Combination of Compound C (Compound of the present invention) and Ceftizoxime (known antimicrobial agent, hereinafter referred to as CZX) (1:1 by weight).
(ii) Combination of Compound C (Compound of the present invention) and Cefazolin (known antimicrobial agent, hereinafter referred to as CEZ) (1:1 by weight).
4-week-old male ICR strain-mice, weighing 21.5±1.5 g.
1.1×10^5 Colony forming unit of Escherichia coli 36 suspended in 0.5 ml of 5% mucin were intraperitoneally injected.
One hour after challenge, mice were treated subcutaneously with various doses of test compound. The ED50 values were calculated by the probit method from the number of mice surviving 4 days of observation.

[1] = system: Staphylococcus aureus 209P JC-1; assay: in vitro antimicrobial activity, two-fold agar-plate dilution method (MIC); type: cell-based; conditions: S. aureus 209P JC-1, HI-agar, 37° C., 20 hours
Experimental: (§1) In vitro Antimicrobial activity was determined by the two-fold agar-plate dilution method as described below.
(§2) One loopful of an overnight culture of each test strain in Trypticase-soy broth (10^6 viable cells per ml) was streaked on heart infusion agar (HI-agar) containing graded concentrations of the test compound, and the minimal inhibitory concentration (MIC) was expressed in terms of μg/ml after incubation at 37° C. for 20 hours.

[2] = system: Esherichia coli NIHJ JC-2; assay: as above; type: cell-based; conditions: Escherichia coli, NIHJJC2; E. coli NIHJ JC-2; HI-agar, 37° C., 20 hours
Experimental: as §1, §2

R-TEM Penicillinase = R-TEM Penicillinase (Escherichia coli, UniProt P62593); assay: Inactivation of β-Lactamase, direct spectrophotometric assay with chromogenic cephalosporin; type: biochemical, Escherichia coli 18; conditions: 100 μg/ml, 5 minutes at 37° C.
Ia Cephalosporinase = Ia Cephalosporinase (Enterobacter cloacae, UniProt P05364); assay: as above; type: biochemical, Enterobacter cloacae 91; conditions: 5 min, read-out: Inactivation (%)
Experimental: Ia Cephalosporinase derived from Enterobacter cloacae 91.
Test compound solution (100 μg/ml) was incubated for 5 minutes at 37° C. with β-lactamase before determination of enzymatic activity. β-Lactamase activity was measured by direct spectrophotometric assay using a chromogenic cephalosporin as a substrate. The extent of inactivation was expressed as percent ratio of inactivated activity.

Chain of R-TEM Penicillinase (P62593 24-286 limits assumed): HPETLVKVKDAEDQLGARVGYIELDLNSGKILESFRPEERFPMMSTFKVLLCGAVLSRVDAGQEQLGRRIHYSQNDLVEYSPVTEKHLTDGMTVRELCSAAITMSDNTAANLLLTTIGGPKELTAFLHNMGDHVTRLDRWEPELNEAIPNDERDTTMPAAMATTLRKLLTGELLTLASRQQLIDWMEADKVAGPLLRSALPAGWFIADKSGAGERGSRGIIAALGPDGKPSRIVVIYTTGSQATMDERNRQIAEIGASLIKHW
Chain of Ia Cephalosporinase (P05364 21-381): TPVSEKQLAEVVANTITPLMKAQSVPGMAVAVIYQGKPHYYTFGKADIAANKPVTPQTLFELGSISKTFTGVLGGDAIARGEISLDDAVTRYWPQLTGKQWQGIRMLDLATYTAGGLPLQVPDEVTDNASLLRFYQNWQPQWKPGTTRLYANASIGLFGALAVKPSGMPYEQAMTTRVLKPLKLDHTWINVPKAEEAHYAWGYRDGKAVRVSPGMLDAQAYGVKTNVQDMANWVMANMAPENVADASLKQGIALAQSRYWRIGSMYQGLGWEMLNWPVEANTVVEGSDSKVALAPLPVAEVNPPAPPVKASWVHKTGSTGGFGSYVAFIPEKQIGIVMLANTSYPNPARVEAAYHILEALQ

SMILES | ED50 values (Escherichia coli 36; (ii) with CEZ) [mg/kg] | ED50 values (Escherichia coli 36; (i) with CZX) [mg/kg] | MIC [1] [µg/mL] | MIC [2] [µg/mL] | Inactivation (%) (R-TEM Penicillinase) | other results
Cc1nnc(SCC2=C(C(=O)O)N3C(=O)[C@@H](NC(=O)Cn4cnnn4)[C@H]3SC2)s1 [CEZ, Cefazolin, reference compound] | 20.8 | – | – | – | – | –
CO/N=C(\C(=O)N[C@@H]1C(=O)N2C(C(=O)O)=CCS[C@H]12)c1csc(N)n1 [CZX, Ceftizoxime, reference compound] | – | 3.42 | – | – | – | –
CC(C)(O)[C@@H]1C(=O)N2C(C(=O)[O-])=C(Sc3ccncc3)C[C@H]12.[Na+] [Compound A, Sodium (5R, 6R)-3-(4-pyridylthio)-6-(1-hydroxy-1-methylethyl)-7-oxo-1-azabicyclo[3.2.0]hept-2-ene-2-carboxylate] | – | – | 0.1 | 0.1 | – | –
Cc1nnc(SC2=C(C(=O)[O-])N3C(=O)[C@@H](C(C)(C)O)[C@H]3C2)s1.[K+] [Compound B, Potassium (5R, 6R)-3-(5-methyl-1,3,4-thiadiazol-2-ylthio)-6-(1-hydroxy-1-methylethyl)-7-oxo-1-azabicyclo[3.2.0]hept-2-ene-2-carboxylate] | – | – | 0.2 | 0.2 | – | –
CC(C)(O)[C@H]1C(=O)N2C(C(=O)[O-])=C(Sc3ccncc3)C[C@H]12.[Na+] [Compound C, Sodium (5R,6S)-3-(4-pyridylthio)-6-(1-hydroxy-1-methylethyl)-7-oxo-1-azabicyclo[3.2.0]hept-2-ene-2-carboxylate] | > 112 | > 112 | – | – | > 95 | inhibition at 100 µg/mL (Ia Cephalosporinase; 100 μg/ml, 5 minutes at 37° C., Ia Cephalosporinase): > 95%
Cn1nnnc1SC1=C(C(=O)[O-])N2C(=O)[C@@H](C(C)(C)O)[C@H]2C1.[K+] [Compound D, Potassium (5R,6R)-3-(1-methyl-1H-tetrazol-5-ylthio)-6-(1-hydroxy-1-methylethyl)-7-oxo-1-azabicyclo[3.2.0]hept-2-ene-2-carboxylate] | – | – | – | – | > 95 | inhibition at 100 µg/mL (Ia Cephalosporinase): > 95%
